Article PMC11546786, “Designing Analogs of SAAP-148 with Enhanced Antimicrobial and Anti-LPS Activities” (International Journal of Molecular Sciences, 2024)
Ends that are not written are not given here.

Tests used:
[1] = tested on: Pseudomonas aeruginosa (1.2421); type: cell-based
Summary of the method: (§1)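 Broth microdilution (modified CLSI): mid-log bacteria grown in LB at 37 °C were adjusted to 1 × 10^6 CFU/mL and mixed 1:1 with PBS-diluted peptide. After 18–20 h at 37 °C, absorbance was read at 600 nm.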

[2] = tested on: Staphylococcus aureus (1.8721); type: cell-based
Summary of the method: as §1

[3] = tested on: Staphylococcus epidermidis (1.4260); type: cell-based
Summary of the method: as §1

[4] = tested on: Klebsiella pneumonia (1.1736); type: cell-based, Klebsiella pneumoniae
Summary of the method: as §1

[5] = tested on: Gram-negative bacteria (E. coli, P. aeruginosa, K. pneumoniae); assay: Geometric mean of MICs against Gram-negative bacteria; type: cell-based; set-up: unit not given here
Summary of the method: (§2)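 Modified CLSI broth microdilution: mid-log bacteria from LB culture were adjusted to 1 × 10^6 CFU/mL and mixed 1:1 with peptide serially diluted in PBS. After 18 to 20 h at 37 °C, growth was read as absorbance at 600 nm.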

[6] = tested on: Gram-positive bacteria (S. aureus, S. epidermidis); assay: Geometric mean of MICs against Gram-positive bacteria; type: cell-based; set-up: unit not given here
Summary of the method: as §2

five bacterial strains = assay: MICs against all five bacterial strains (geometric mean, range); type: cell-based; set-up: unit not given here; settings: geometric mean of MICs against all five bacterial strains
Summary of the method: as §2

human erythrocytes = assay: Haemolytic activity; type: cell-based
Method: The haemolytic activity of the peptides was evaluated using a standard procedure with minor adjustments. Fresh human erythrocytes were washed thrice and subsequently resuspended at 1.25% haematocrit in PBS. Forty microlitres PBS-diluted peptide solution was added to a 96-well plate (Corning Inc., Lowell, MA, USA), and 160 μL of erythrocytes was added. After incubation at 37 °C for 30 min, the samples were centrifuged, and the absorbance of the supernatant was measured at 450 nm using a multi-well microplate reader (SpectraMax M5; Molecular Devices, Sunnyvale, CA, USA) and compared with the 100% haemolysis caused by 0.1% Triton X-100. The percentage of haemolysis was calculated according to the equation: Haemolysis%=Asample−Ablank/Atriton−Ablank×100

S. aureus = assay: Membrane damage, PI staining and flow cytometry; type: cell-based, Staphylococcus aureus; settings: 6.25 μM peptide, 30 min
Method: Propidium iodide (PI) was utilized as a marker for assessing the structural integrity of cell membranes and the occurrence of cell death. The impact of peptides on BEAS-2B cells, E. coli, and S. aureus was investigated by treating the cells with peptides followed by PI staining and flow cytometry (FACS) analysis to evaluate peptide-induced membrane damage. Table 5 presents the results of PI staining in BEAS-2B cells (1 × 10^6) following treatment with peptides at a concentration of 6.25 μM. […] FACS analysis at a peptide concentration of 6.25 μM was employed to determine the membrane damage caused by peptides in E. coli and S. aureus cells (Table 5).
Peptide-induced membrane damage was evaluated by quantifying the influx of propidium iodide (PI). BEAS-2B cells (1 × 10^6 cells in 50 μL) were exposed to a final concentration of 6.25 μM peptide and incubated at 37 °C for 30 min, followed by PBS washing and re-suspension in PI solution (dissolved in PBS) at a final concentration of 2 μg/mL. Bacteria were cultured to mid-log phase at 37 °C, then diluted to an OD600 of 0.5 in phosphate-buffered saline (PBS). […] The bacteria were harvested and re-suspended in PI solution, with fluorescence signal analysis conducted using flow cytometry (Cytomics FC 500, Beckman Coulter, Indianapolis, IN, USA).

LKRVWKRVFKLKKRYWRQLKKPVR-NH2 [SAAP-7]
MIC P. aeruginosa [1]: 3.13 µM
MIC S. aureus [2]: 100.00 µM
MIC S. epidermidis [3]: 12.50 µM
MIC K. pneumoniae [4]: 100.00 µM
GM to G− [5]: 9.93
GM to G+ [6]: 35.36
MIC (GM) (five bacterial strains): 16.49
fold increase of MHC over that of SAAP-148 (human erythrocytes): 133.33 fold
percentage of PI-positive cells, S. aureus (S. aureus): 21.1%
